Source: PMC10321280, “Inhibition of KMO Ameliorates Myocardial Ischemia Injury via Maintaining Mitochondrial Fusion and Fission Balance” (International Journal of Biological Sciences, 2023)

Molecular target: kynurenine 3-monooxygenase (KMO; Recombinant human Kynurenine 3-hydroxylase) (Homo sapiens, UniProt O15229)
Experiment: SPR (Biacore T200, KMO immobilized on CM5 chip by amine coupling, […] binding model)

Chain of kynurenine 3-monooxygenase (KMO; Recombinant human Kynurenine 3-hydroxylase) (O15229 whole entry): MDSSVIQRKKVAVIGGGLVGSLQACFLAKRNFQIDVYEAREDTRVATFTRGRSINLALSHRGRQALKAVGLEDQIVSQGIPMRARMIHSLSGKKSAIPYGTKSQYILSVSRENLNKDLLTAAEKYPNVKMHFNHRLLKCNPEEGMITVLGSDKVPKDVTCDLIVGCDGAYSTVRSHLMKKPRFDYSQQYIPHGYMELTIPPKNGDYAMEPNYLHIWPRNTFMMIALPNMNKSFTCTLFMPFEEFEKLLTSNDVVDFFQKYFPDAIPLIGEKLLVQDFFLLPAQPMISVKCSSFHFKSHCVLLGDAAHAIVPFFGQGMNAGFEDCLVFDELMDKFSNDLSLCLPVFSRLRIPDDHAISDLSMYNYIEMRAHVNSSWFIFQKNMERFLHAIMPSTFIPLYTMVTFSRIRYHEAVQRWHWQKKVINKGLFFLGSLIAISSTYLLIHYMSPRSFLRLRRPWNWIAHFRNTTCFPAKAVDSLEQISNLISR

A Kd of 1960 nM was found for `CC(C)=CCC[C@](C)(O[C@@H]1O[C@H](CO[C@@H]2OC[C@@H](O)[C@H](O)[C@H]2O)[C@@H](O)[C@H](O)[C@H]1O)[C@H]1CC[C@]2(C)[C@@H]1[C@H](O)C[C@@H]1[C@@]3(C)CC[C@H](O[C@@H]4O[C@H](CO)[C@@H](O)[C@H](O)[C@H]4O[C@@H]4O[C@H](CO)[C@@H](O)[C@H](O)[C@H]4O)C(C)(C)[C@@H]3CC[C@]12C` [Ginsenoside Rb3] in this work.
